Measured values as given in patent US20260217983A1, “SULFONIUM SALT PHOTOINITIATORS AND METHODS OF LED CURING A COMPOSITION WITH SAID SULFONIUM SALT PHOTOINITIATORS” (ARKEMA FRANCE, priority 2022, published 2026).

How the values were obtained:
[1] = Real time FT-IR curing performance in UViCure S105 at 365 and 385 nm; conditions: for Polymerization rate Rp/[M0]*100 / Final conversion: UViCure S105, 20 μm thickness, under air; for Final conversion: epoxide band; for cure speed compared with photoinitiators known from prior art such as Omnicat BL 550: LED lamp conditions, Example 2
Experimental: (§1) The curing performance of individual products prepared above was assessed using real time FT-IR measurement. The photoinitiators were dissolved in cycloaliphatic epoxy resin UViCure S105 (available from Sartomer) at the indicated wt % loading, applied onto the FT-IR measurement plate and irradiated with the indicated LED light source. The polymerization rate and final reactive group conversion were determined by monitoring the change of the relevant infrared band near 900 cm^−1 corresponding to an epoxide ring during irradiation. The molar extinction coefficients for the photoinitiator products (ε, expressed in M^−1 cm^−1) were determined in acetonitrile at 10^-3 M or 10^-5 M concentration.

[2] = Molar extinction coefficient in acetonitrile; assay type: physicochemical
Experimental: as §1

[3] = Real time FT-IR curing performance at 405 nm in neat TMPTA; conditions: 20 μm thickness, laminated; for Acrylate Polymerization rate Rp/[M0]*100: LED @405 nm (110 W/cm^2); for Acrylate Final conversion: LED @405 nm (110 mW/cm^2)
Experimental: (§2) The curing performance of individual products prepared above was assessed using real time FT-IR measurement. The photoinitiators were dissolved either in neat trimethylolpropane triacrylate (TMPTA; available as SR351 from Sartomer) or in a 1:1 (w/w) mixture of TMPTA and UViCure S105 as indicated, applied onto the FT-IR measurement plate, laminated to prevent oxygen inhibition, and irradiated with the indicated LED light source. For the epoxy component, the polymerization rate and final reactive group conversion were determined by monitoring the change of the relevant infrared band near 900 cm^−1 corresponding to an epoxide ring. For the acrylate component, the C═C stretch band near 1625 cm^−1 was used.

[4] = Real time FT-IR curing performance at 405 nm in UViCure S105/TMPTA (1:1); conditions: LED @405 nm (110 mW/cm^2), 20 μm thickness, laminated
Experimental: as §2

[5] = Belt curing performance (thumb-twist depth cure) in UViCure S105E resin; conditions: 24 μm film, under air, PI 2 wt %
Experimental: (§3) The photoinitiators were dissolved either in neat UViCure S105E resin or a hybrid acrylate/epoxy resin (prepared by mixing 60 wt parts UViCure S105E, 15 wt parts UViCure S130 and 25 wt parts SR492; all product are available from Sartomer). Formulations were prepared by combining all materials in the given proportions and then stirring at 30-40° C. until the samples were fully homogeneous; the formulations were then allowed to cool to room temperature. For all experiments, the formulations were cured on Leneta Form 3N-31 gloss finish paper at 6 μm and 24 μm film thickness using a belt-cure instrument; the films were prepared using a K-bar. All films were then cured under an LED lamp at a given belt speed. ‘Depth cure’ for each formulation was assessed using the ‘thumb-twist’ test (where no visible mark is made when a thumb is pressed down firmly onto the coating with a twisting motion), and from the belt speed; the calculated cure speed (in m/min) is given.

[6] = Belt curing performance (thumb-twist depth cure) in hybrid acrylate/epoxy resin; conditions: 24 μm film, under air, PI 2 wt %
Experimental: as §3

[7] = Colour index 'b' of formulations before and after polymerization; assay type: physicochemical; conditions: UViCure S105E, thin samples (20 μm), under air, 300 s irradiation
Experimental: The low yellowing characteristics can be measured by the Colour index ‘b’ value on cured films.
Formulations comprising the photoinitiators and neat UViCure S105E resin were prepared as described at example 2.

[8] = LED @365 nm (120 W/cm^2), PI loading 1 wt % (Omnicat BL 550 4 wt %; Speedcure 938/CPTX 1/0.5 wt %)
[9] = LED 365 nm, 100% intensity (=70.1 mJ/cm^2), belt speed 40 m/min

## CCCOc1ccc(Cl)c2c(=O)c3ccccc3[s+](-c3ccc(-c4ccc(OC)cc4)cc3)c12 (stereo not shown) [Photoinitiator 32, 1-chloro-10-(4′-methoxy[1,1′-biphenyl]-4-yl)-9-oxo-4-propoxy-9H-thioxanthen-10-ium Hexafluorophosphate]
[1]; [8]
  Polymerization rate Rp/[M0]*100: 3.73 s⁻¹
[1]; LED @365 nm (120 W/cm^2)
  Final conversion: 28%
[1]; LED @385 nm (160 W/cm^2)
  Polymerization rate Rp/[M0]*100: 4.86 s⁻¹
  Final conversion: 33%
[1]
  cure speed compared with photoinitiators known from prior art such as Omnicat BL 550: higher cure speed
[2]
  ε at 365 nm: 4507 M⁻¹ cm⁻¹
  ε at 385 nm: 2055 M⁻¹ cm⁻¹

## CCCOc1ccc(Cl)c2c1[SH](c1ccc(Oc3ccccc3)cc1)c1ccccc1C2=O (stereo not shown) [Photoinitiator 16, 1-chloro-9-oxo-10-(4-phenoxyphenyl)-4-propoxy-9H-thioxanthen-10-ium hexafluorophosphate]
[1]; [8]
  Polymerization rate Rp/[M0]*100: 2.88 s⁻¹
[1]; LED @365 nm (120 W/cm^2)
  Final conversion: 40%
[1]; LED @385 nm (160 W/cm^2)
  Polymerization rate Rp/[M0]*100: 3.71 s⁻¹
  Final conversion: 38%
[2]
  ε at 365 nm: 20030 M⁻¹ cm⁻¹
  ε at 385 nm: 6830 M⁻¹ cm⁻¹

## COc1ccccc1-c1cc(-[s+]2c3ccccc3c(=O)c3cc(C(C)C)ccc32)ccc1OC (stereo not shown) [Photoinitiator 28, 10-(2′,6-dimethoxy[1,1′-biphenyl]-3-yl)-9-oxo-2-(propan-2-yl)-9H-thioxanthen-10-ium hexafluorophosphate]
[1]; [8]
  Polymerization rate Rp/[M0]*100: 2.29 s⁻¹
[1]; LED @365 nm (120 W/cm^2)
  Final conversion: 34%
[1]; LED @385 nm (160 W/cm^2)
  Polymerization rate Rp/[M0]*100: 5.78 s⁻¹
  Final conversion: 36%
[2]
  ε at 365 nm: 426 M⁻¹ cm⁻¹
  ε at 385 nm: 268 M⁻¹ cm⁻¹

## COC(=O)COc1ccc2sc3ccc(-[s+]4c5ccccc5c(=O)c5cc(OCC(=O)OC)ccc54)cc3c(=O)c2c1 (stereo not shown) [Photoinitiator 6, 2-(2-methoxy-2-oxoethoxy)-10-[7-(2-methoxy-2-oxoethoxy)-9-oxo-9H-thioxanthen-2-yl]-9-oxo-9H-thioxanthen-10-ium Hexafluorophosphate]
[1]; [8]
  Polymerization rate Rp/[M0]*100: 0.72 s⁻¹
[1]; LED @365 nm (120 W/cm^2)
  Final conversion: 35%
[1]; LED @385 nm (160 W/cm^2)
  Polymerization rate Rp/[M0]*100: 2.01 s⁻¹
  Final conversion: 36%
[2]
  ε at 365 nm: 18314 M⁻¹ cm⁻¹
  ε at 385 nm: 24656 M⁻¹ cm⁻¹

## COc1ccc(-c2ccc(-[s+]3c4ccccc4c(=O)c4cc(C(C)C)ccc43)cc2)cc1 (stereo not shown) [Photoinitiator 26, 10-(4′-methoxy[1,1-biphenyl]-4-yl)-9-oxo-2-(propan-2-yl)-9H-thioxanthen-10-ium hexafluorophosphate]
[1]; [8]
  Polymerization rate Rp/[M0]*100: 4.94 s⁻¹
[1]; LED @365 nm (120 W/cm^2)
  Final conversion: 26%
[1]; LED @385 nm (160 W/cm^2)
  Polymerization rate Rp/[M0]*100: 3.08 s⁻¹
  Final conversion: 28%
[1]
  cure speed compared with photoinitiators known from prior art such as Omnicat BL 550: higher cure speed
[2]
  ε at 365 nm: 3600 M⁻¹ cm⁻¹
  ε at 385 nm: 1622 M⁻¹ cm⁻¹

## CCCOc1ccc(Cl)c2c(=O)c3cc([S+](c4ccc(C)cc4)c4ccc(C(=O)c5ccccc5)cc4)ccc3sc12 (stereo not shown) [Photoinitiator 3, (4-benzoylphenyl)(8-chloro-9-oxo-5-propoxy-9H-thioxanthen-2-yl)(4-methylphenyl)sulfonium hexafluorophosphate]
[1]; [8]
  Polymerization rate Rp/[M0]*100: 2.70 s⁻¹
[1]; LED @365 nm (120 W/cm^2)
  Final conversion: 38%
[1]; LED @385 nm (160 W/cm^2)
  Polymerization rate Rp/[M0]*100: 2.46 s⁻¹
  Final conversion: 37%
[2]
  ε at 365 nm: 17066 M⁻¹ cm⁻¹
  ε at 385 nm: 17083 M⁻¹ cm⁻¹
[3]
  Acrylate Polymerization rate Rp/[M0]*100: 5.88 s⁻¹
  Acrylate Final conversion: 45%
[4]
  Acrylate Final conversion: 75%
  Acrylate Polymerization rate Rp/[M0]*100: 5.69 s⁻¹
  Epoxy Final conversion: 35%
  Epoxy Polymerization rate Rp/[M0]*100: 2.43 s⁻¹
[5]; [9]
  Cure speed in UViCure S105E resin: 4.8 m/min
[5]; LED 395 nm, 40 m/min, 100% intensity (=164.5 mJ/cm^2)
  Cure speed in UViCure S105E resin: 8.7 m/min
[6]; [9]
  Cure speed in hybrid acrylate/epoxy resin: 2.2 m/min
[6]; LED 395 nm, 80 m/min, 50% intensity (=36.9 mJ/cm^2)
  Cure speed in hybrid acrylate/epoxy resin: no cure
[7]; LED @365 nm (120 mW/cm^2)
  Colour index ‘b’ value After Polymerization: 7.40
  Colour index ‘b’ value Before Polymerization: 11.28
[7]; LED @385 nm (160 mW/cm^2)
  Colour index ‘b’ value After Polymerization: 7.48
  Colour index ‘b’ value Before Polymerization: 8.40

## CC(C)c1ccc2c(c1)c(=O)c1ccccc1[s+]2-c1ccc(Oc2ccccc2)cc1 (stereo not shown) [Photoinitiator 12, 9-oxo-10-(4-phenoxyphenyl)-2-(propan-2-yl)-9H-thioxanthen-10-ium Hexafluorophosphate]
[1]; [8]
  Polymerization rate Rp/[M0]*100: 2.93 s⁻¹
[1]; LED @365 nm (120 W/cm^2)
  Final conversion: 32%
[1]; LED @385 nm (160 W/cm^2)
  Polymerization rate Rp/[M0]*100: 2.74 s⁻¹
  Final conversion: 36%
[2]
  ε at 365 nm: 185 M⁻¹ cm⁻¹
  ε at 385 nm: 137 M⁻¹ cm⁻¹

## CCc1cc(CC)c2sc3ccc(-[s+]4c5ccccc5c(=O)c5cc(CC)cc(CC)c54)cc3c(=O)c2c1 (stereo not shown) [Photoinitiator 40, 10-(5,7-diethyl-9-oxo-9H-thioxanthen-2-yl)-2,4-diethyl-9-oxo-9H-thioxanthen-10-ium Hexafluorophosphate]
[1]; [8]
  Polymerization rate Rp/[M0]*100: 2.72 s⁻¹
[1]; LED @365 nm (120 W/cm^2)
  Final conversion: 18%
[1]; LED @385 nm (160 W/cm^2)
  Polymerization rate Rp/[M0]*100: 5.89 s⁻¹
  Final conversion: 38%
[2]
  ε at 365 nm: 19117 M⁻¹ cm⁻¹
  ε at 385 nm: 15504 M⁻¹ cm⁻¹
[3]
  Acrylate Polymerization rate Rp/[M0]*100: 5.86 s⁻¹
  Acrylate Final conversion: 65%
[4]
  Acrylate Final conversion: 83%
  Acrylate Polymerization rate Rp/[M0]*100: 10.81 s⁻¹
  Epoxy Final conversion: 52%
  Epoxy Polymerization rate Rp/[M0]*100: 6.46 s⁻¹
